Data published in ChEMBL document CHEMBL1139559, “Radical scavenging activity of protein from tentacles of jellyfish Rhopilema esculentum” (Bioorg Med Chem Lett, 2005).
≈ marks a conversion by molar mass, not a printed value.

What was measured:
[1] = Effective concentration required for scavenging of superoxide anion radical generation from the tentical protein of jellyfish; assay type: functional, Rhopilema esculentum
[2] = Effective concentration required for scavenging of hydroxyl radical generation from the tentical protein of jellyfish; assay type: functional, Rhopilema esculentum

Row | SMILES | EC50 [1] [µg/mL] | EC50 [2] [µg/mL]
1 | Cc1c(C)c2c(c(C)c1O)CC[C@@](C)(CCC[C@H](C)CCC[C@H](C)CCCC(C)C)O2 [ALPHA-TOCOPHEROL] | 88 (≈ 204 µM) | 
2 | COc1ccc(O)c(C(C)(C)C)c1.COc1ccc(O)cc1C(C)(C)C [BUTYLATED HYDROXYANISOLE] | 31 | 
3 | Cc1cc(C(C)(C)C)c(O)c(C(C)(C)C)c1 [BUTYLATED HYDROXYTOLUENE] | 61 (≈ 277 µM) | 
4 | OC[C@@H](O)[C@@H](O)[C@H](O)[C@H](O)CO [MANNITOL] |  | 4536 (≈ 24900 µM)
